Consider 1 compound from US7985774B2, “Use of 3,5-seco-4-nor-cholestane derivatives for obtaining a cytoprotective drug” (Trophos, priority 2006, dated 2011).

Experiment [1] deals with rabbit ventricular cardiomyocytes. Put plainly: Contractile dysfunction test induced by doxorubicin (sarcomer shortening). Format: cell-based. The following applies: after 4 hrs of exposure. The method, then: A stock solution of 3,5-seco-4-nor-cholestan-5-one oxime-3-ol at a concentration of 10 mM in 100% DMSO was used.
The final concentration in DMSO was the same for all the experimental points, independently of the molecular concentrations used.
3,5-seco-4-nor-cholestan-5-one oxime-3-ol was tested at concentrations of 0.1 and 0.3 μM, diluted in a Tyrode solution (composition in mmol/L: NaCl 135, KCl 5.4, NaH2PO4 0.33, CaCl2 1.2, MgCl2 1.0, Hepes 10; pH adjusted to 7.4 with NaOH).
Isolated ventricular cells are obtained from hearts of male New Zealand rabbits as described in A. d'Anglemont de Tassigny et al., Fund. Clin. Pharmacol, 18: 531-38, 2004. Briefly, the rabbits (2.0-2.5 kg) are anaesthetized with a pentobarbital solution (50 mg/kg) and they then receive heparin (200 IU/kg). The hearts are excised and immediately perfused, for 10-15 minutes by means of a Langendorff apparatus without recirculation with an oxygenated tyrode (calcium-free) isotonic solution (95%, 2-5% CO2) (in mM: NaCl 135, KCl 5.4, Na2PO4 0.33, MgCl2 1.0, HEPES 10, pH adjusted to 7.4 with 1N NaOH at 37° C., 280-300 mOsmol/kgH2O). […]
The myocytes were selected for the study according to the following criterion: a rod-like aspect with very apparent striations and no intracellular vacuola, no spontaneous contraction when they are stimulated with 1 mM Ca^2+, and with constant rest length and contraction amplitude. The length of the sarcomers was measured by means of a video image analysis program and the data were acquired at a rate of 240 samples/s. […]
Apoptosis is induced in isolated cardiomyocytes by 3-8 hour exposure to 1 μM of doxorubicin added into an isotonic solution containing (in mM) NaCl 110, KCl 5.4, Na2PO4 0.33, NaHCO3 25, glucose 5, MgCl2 0.8, CaCl2 1, pH adjusted to 7.4. […] The contractility of cardiomyocytes was measured every hour during the 8 hrs of exposure to doxorubicin. […]

Another experiment deals with CD1 mice. The experiment is described as follows: Acute hepatotoxicity: intoxication by Jo2 anti-Fas antibody and assaying ALATs. Format: in vivo. The conditions noted are these: blood 24 hrs after Jo2, control 2,860 ± 382. The text has this: An acute model of hepatic damage may be induced by a single injection of the Jo2 anti-Fas antibody (Ogasawara et al., Nature, August 1993), producing severe hepatic damages and resembling viral, auto-immune or drug-induced hepatitis.
Alanine Aminotransferase (ALAT) also called Serum Glutamic Pyruvic Transaminase (SGPT) is an enzyme present in hepatocytes.
Male adult CD1 mice from the breeder “Elevage Janvier”, (Le Genest-Saint-Isle, France) were used. The animals were identified individually and had free access to water and food.
A stock solution of monoclonal hamster anti-mouse CD95 (Fas) antibody, called Jo2, from Pharmingen (BD Biosciences, ref. 554254 batch 32699) is prepared at a concentration of 1 mg/mL in water. The dilutions used are made in 0.9% sodium chloride in water.
The desired amount of 3,5-seco-4-nor-cholestan-5-one oxime-3-ol is weighed and milled into a fine powder, and then mixed with Cremophore EL (Sigma C5135) and absolute ethanol (Carlo Erba RPE 41571) (5% and 10% of the final volume, respectively). After complete dissolution, 0.9% sodium chloride in water is added extemporaneously (85% of the final volume).
Pretreatment with 3,5-seco-4-nor-cholestan-5-one oxime-3-ol is carried out with dosages of 10 and 30 mg/kg by intraperitoneal administration 1 hr before administering the Jo2 antibody. […]

Regarding `CC(C)CCC[C@@H](C)[C@H]1CC[C@H]2[C@@H]3CC/C(=N\O)[C@](C)(CCCO)[C@H]3CC[C@]12C` [3,5-seco-4-nor-cholestan-5-one oxime-3-ol], the “shortening of the peak relatively to the base line” value in experiment [1] (doxorubicin 1 μM + compound 0.1 μM (15 min pre-treatment)) is given as 18.9±5.4%; in experiment [1] (doxorubicin 1 μM + compound 0.3 μM (15 min pre-treatment)), −8.1±9.6%. For the same compound, the “ALAT activity Average +/− SEM” value in the experiment on CD1 mice (10 mg/kg i.p. 1 hr before Jo2 125 μg/kg i.p.) stood at 511 ± 140 U/L; in the experiment on CD1 mice (30 mg/kg i.p. 1 hr before Jo2 125 μg/kg i.p.), 533 ± 150 U/L.
